Measurements from patent US9890407B2, “Method for synthesizing cellulose in vitro” (University of Virginia Patent Foundation, priority 2013, dated 2018).

Experiments:
[1] = target: T1, Rhodobacter sphaeroides BcsA-B complex (cellulose synthase), wild type, BcsA SEQ ID NO: 1, BcsB SEQ ID NO: 3 (Cereibacter sphaeroides, UniProt Q3J125); test: Enzyme-coupled (PK/LDH, NADH oxidation) cellulose synthase assay, ND-reconstituted BcsA-B; type: biochemical; details: titration of UDP-Glc at increasing c-di-GMP concentrations
T1 construct: pETDuet, E. coli C43; purified, reconstituted in nanodiscs, proteoliposomes or detergent
T1 sequence (Q3J125 1-788): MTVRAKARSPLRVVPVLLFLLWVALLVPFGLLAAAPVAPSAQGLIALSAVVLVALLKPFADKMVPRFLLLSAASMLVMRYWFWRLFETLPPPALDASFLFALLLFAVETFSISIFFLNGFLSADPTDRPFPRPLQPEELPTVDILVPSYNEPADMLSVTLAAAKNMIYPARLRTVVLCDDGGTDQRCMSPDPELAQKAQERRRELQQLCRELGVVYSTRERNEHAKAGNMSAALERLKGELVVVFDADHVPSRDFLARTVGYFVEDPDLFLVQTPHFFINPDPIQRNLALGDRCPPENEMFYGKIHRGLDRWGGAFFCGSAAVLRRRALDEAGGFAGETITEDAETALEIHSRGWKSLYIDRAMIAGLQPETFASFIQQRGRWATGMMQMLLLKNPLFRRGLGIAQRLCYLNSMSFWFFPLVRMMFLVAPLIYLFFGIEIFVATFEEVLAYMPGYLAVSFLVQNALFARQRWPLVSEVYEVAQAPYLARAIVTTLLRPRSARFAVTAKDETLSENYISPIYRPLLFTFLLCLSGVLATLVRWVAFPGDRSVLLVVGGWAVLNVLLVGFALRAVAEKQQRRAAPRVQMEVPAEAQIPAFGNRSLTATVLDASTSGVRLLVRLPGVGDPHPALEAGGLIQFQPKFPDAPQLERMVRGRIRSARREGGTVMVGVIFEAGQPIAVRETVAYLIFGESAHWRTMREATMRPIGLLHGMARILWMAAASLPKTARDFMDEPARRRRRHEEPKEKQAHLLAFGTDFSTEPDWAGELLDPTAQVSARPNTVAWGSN
T1 sequence (Q3J126 21-725 partner): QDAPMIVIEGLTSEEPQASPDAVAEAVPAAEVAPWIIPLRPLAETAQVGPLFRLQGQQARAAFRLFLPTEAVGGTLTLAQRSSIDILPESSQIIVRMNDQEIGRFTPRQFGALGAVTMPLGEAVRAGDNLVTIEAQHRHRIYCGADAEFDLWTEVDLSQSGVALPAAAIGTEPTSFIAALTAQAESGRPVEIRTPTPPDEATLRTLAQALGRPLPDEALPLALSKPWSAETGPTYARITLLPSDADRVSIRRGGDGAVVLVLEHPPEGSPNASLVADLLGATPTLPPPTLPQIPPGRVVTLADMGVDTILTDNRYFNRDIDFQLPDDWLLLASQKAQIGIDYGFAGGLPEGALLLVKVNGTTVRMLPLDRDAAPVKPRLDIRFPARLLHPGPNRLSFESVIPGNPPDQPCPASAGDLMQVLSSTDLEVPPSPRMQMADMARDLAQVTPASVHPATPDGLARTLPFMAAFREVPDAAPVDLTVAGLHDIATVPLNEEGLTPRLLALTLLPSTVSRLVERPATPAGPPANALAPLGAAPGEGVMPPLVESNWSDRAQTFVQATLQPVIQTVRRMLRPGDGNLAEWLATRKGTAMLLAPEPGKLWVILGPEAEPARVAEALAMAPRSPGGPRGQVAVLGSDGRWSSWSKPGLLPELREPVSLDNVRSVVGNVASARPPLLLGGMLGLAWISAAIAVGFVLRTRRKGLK

[2] = target: BcsA-Arg580Ala complex; test: Isothermal titration calorimetry, c-di-GMP into BcsA-R580A complex; type: binding, Rhodobacter sphaeroides; details: BcsA-R580A in 1 mM LFCE14, 25° C.; read-out: Kd of c-di-GMP (ITC)
Protocol: (§1) FIG. 23A-23B (also referred to as Example 2, Supplementary FIG. 5): Cellulose synthesis activity of BcsA mutants and c-di-GMP binding. (FIG. 23A) Cellulose synthesis assays were performed in inverted membrane vesicles and proteoliposomes as described in the Experimental Procedures. The amount of ^3H-glucose-labeled cellulose produced by each mutant is quantified and graphed. 1 μl of IMV's were used for each mutant. For PL assays, the protein concentrations were matched based on UV absorbance and SDS-PAGE followed by Coomassie staining. The apparent lower activity of the R580A mutant may be due to differences in the relative orientation of the enzyme in the PLs or its overall stability. +/−: Experiments performed in the presence and absence of 30 μM c-di-GMP. All data represent the means±SD for 3 technical replicates. (FIG. 23B) Binding of c-di-GMP to the BcsA-R580A mutant. The ability of the R580A mutant to bind c-di-GMP was assessed using ITC.
(§2) The protein was purified in 1 mM LFCE14 as described above. Measurements were carried out at 25° C. in a MicroCal iTC200 system (GE Healthcare) with 250 μl of BcsA-B in the cell at 9.3 μM for WT and 11 μM for the BcsA-Arg580Ala complex and 400 μM c-di-GMP in the syringe. An initial 0.5 μl injection was followed by 39 1 μl injections spaced 180 s apart with stirring at 700 rpm. The data were fit using Origin 7.0 as provided by the manufacturer.

[3] = target: T2, Rhodobacter sphaeroides BcsA-B complex, BcsA variant R580A (Arg580Ala; parent BcsA SEQ ID NO: 1), BcsB SEQ ID NO: 3 (Cereibacter sphaeroides, UniProt Q3J125, R580A); test: Isothermal titration calorimetry, c-di-GMP binding to the BcsA-R580A mutant
Protocol: as §1, §2

[4] = target: T3, Rhodobacter sphaeroides BcsA-B complex, wild type (WT), BcsA SEQ ID NO: 1, BcsB SEQ ID NO: 3 (Cereibacter sphaeroides, UniProt Q3J125); test: Isothermal titration calorimetry, c-di-GMP binding to wild type BcsA-B; details: ITC, 1 mM LFCE14, 25° C.
T3 construct: E. coli; purified in LFCE14 detergent for ITC
T3 sequence (Q3J125 1-788): T1 sequence (Q3J125 1-788)
T3 sequence (Q3J126 21-725 partner): T1 sequence (Q3J126 21-725 partner)
Protocol: as §1, §2

[5] = target: T2, Rhodobacter sphaeroides BcsA-B complex, BcsA variant R580A (Arg580Ala; parent BcsA SEQ ID NO: 1), BcsB SEQ ID NO: 3; type: biochemical; details: c-di-GMP more than 50-fold above its dissociation constant

T2 sequence (Q3J125 entry or part of it R580A, one chain of several): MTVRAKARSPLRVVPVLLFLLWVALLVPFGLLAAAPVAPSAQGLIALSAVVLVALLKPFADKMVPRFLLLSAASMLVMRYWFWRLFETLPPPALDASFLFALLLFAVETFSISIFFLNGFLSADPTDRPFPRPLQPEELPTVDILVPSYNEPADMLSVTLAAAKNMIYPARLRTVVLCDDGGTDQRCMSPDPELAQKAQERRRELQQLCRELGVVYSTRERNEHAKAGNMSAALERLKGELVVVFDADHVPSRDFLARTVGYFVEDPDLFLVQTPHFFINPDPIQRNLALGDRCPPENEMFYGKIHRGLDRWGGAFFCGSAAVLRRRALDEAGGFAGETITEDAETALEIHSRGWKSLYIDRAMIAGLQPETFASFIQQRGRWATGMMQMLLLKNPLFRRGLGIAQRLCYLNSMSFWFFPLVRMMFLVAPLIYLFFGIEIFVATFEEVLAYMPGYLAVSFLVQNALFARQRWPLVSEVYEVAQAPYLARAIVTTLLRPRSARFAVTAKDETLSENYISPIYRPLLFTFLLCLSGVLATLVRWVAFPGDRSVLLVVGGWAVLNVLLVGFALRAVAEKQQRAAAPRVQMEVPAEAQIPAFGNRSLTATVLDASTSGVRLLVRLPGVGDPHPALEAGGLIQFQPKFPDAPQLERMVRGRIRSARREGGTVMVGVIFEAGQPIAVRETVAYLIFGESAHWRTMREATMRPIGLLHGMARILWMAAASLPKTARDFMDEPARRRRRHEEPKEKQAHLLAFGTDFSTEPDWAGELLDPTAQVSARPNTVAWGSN

`Nc1nc2c(ncn2[C@@H]2O[C@@H]3COP(=O)(O)O[C@H]4[C@@H](O)[C@H](n5cnc6c(=O)[nH]c(N)nc65)O[C@@H]4COP(=O)(O)O[C@H]3[C@H]2O)c(=O)[nH]1` [c-di-GMP, cyclic dimeric guanosine monophosphate] was tested, and the “effect of c-di-GMP on BcsA's apparent affinity for UDP-Glc” value [1] was “does not alter BcsA's apparent affinity for UDP-Glc”, the Kd [2] was 1600 nM and the Kd [3] was 1600 nM. The “stoichiometry of c-di-GMP binding” value ([3]; ITC, 1 mM LFCE14, 25° C.) was roughly 0.5, the Kd [4] was 400 nM and the “stimulation of cellulose biosynthesis by c-di-GMP” value [5] was “no further stimulation”.
